# “Also recorded” adds a separate entry of the source. Like-named read-outs stand apart in the source and are kept apart here.
# How the values were obtained:
# [1] = biological target: recombinant human acetylcholinesterase, rHsAChE (Homo sapiens, UniProt P22303); assay: biochemical
# [2] = biological target: T1, rSmTAChE (Schistosoma mansoni, UniProt A0A3Q0KMM5); type: biochemical;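 as to Inhibition (%) (Average): mostly 20 µM final but a few compounds at 5 or 10 µM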;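 as to Inhibition (%) Replicate A: mostly 20 µM final but a few compounds at 5 or 10 µM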;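 as to Inhibition (%) Replicate B: mostly 20 µM final but a few compounds at 5 or 10 µM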
# [3] = biological target: T1, rSmTAChE; assay: biochemical; conditions: for inhibition at 20 µM: read-out: rSmTAChE HTS Inhibition (Ave, %)
# [4] = read-out: qAC50 (IC50), rSmTAChE
# [5] = read-out: qAC50 (IC50), rHsAChE
# T1 sequence (A0A3Q0KMM5 27-661 limits assumed): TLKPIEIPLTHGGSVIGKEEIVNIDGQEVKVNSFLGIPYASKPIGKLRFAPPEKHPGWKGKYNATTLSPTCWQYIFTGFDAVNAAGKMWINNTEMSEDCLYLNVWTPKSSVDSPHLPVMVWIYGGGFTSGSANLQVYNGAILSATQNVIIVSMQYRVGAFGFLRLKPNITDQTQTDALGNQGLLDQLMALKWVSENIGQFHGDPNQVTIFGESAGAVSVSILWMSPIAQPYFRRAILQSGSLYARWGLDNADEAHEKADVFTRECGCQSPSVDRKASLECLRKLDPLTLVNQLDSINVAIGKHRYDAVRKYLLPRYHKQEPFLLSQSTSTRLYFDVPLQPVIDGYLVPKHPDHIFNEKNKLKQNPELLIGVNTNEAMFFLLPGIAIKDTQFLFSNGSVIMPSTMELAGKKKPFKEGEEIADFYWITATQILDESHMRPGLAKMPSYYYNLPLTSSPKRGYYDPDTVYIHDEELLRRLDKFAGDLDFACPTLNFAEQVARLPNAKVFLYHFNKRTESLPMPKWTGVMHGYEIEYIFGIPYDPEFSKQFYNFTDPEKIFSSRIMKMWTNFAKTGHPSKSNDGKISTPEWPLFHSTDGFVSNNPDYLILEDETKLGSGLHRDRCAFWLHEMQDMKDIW
# Sequence of recombinant human acetylcholinesterase, rHsAChE (P22303 32-614): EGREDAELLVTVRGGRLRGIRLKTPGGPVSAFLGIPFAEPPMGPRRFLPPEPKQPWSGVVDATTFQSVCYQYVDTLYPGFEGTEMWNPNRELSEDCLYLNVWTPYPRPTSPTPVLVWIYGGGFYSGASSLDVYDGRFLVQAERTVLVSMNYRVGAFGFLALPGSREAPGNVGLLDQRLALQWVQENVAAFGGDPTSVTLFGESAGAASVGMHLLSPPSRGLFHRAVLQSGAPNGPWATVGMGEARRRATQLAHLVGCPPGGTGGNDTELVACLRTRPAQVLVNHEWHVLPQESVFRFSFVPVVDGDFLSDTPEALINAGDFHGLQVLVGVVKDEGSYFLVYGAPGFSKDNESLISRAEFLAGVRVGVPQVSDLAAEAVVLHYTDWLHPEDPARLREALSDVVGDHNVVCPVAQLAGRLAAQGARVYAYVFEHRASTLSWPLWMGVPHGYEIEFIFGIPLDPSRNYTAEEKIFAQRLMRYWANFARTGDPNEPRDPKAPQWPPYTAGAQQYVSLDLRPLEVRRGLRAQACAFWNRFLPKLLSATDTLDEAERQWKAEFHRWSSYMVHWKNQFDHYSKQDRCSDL
Compound,rSmTAChE Data Mode [2],"Data Mode (curve class), rHsAChE [1]","Data Mode (curve class), rSmTAChE [2]",Inhibition (%) (Average) [3],Inhibition (%) Replicate A [3] [%],Inhibition (%) Replicate B [3] [%],rHsAChE Data Mode [1],other results
CC(C)(C)[S+]([O-])N1Cc2cc(C(=O)NCCN3CCCC3)nc(-c3cccc(-c4ccc(C#N)cc4)c3)c2C1CCO (centres unmarked) [BRD-K49441594-001-01-4],decreasing,,,,,,,"IC50 ([1]; Table 2, DOS-A library, Inactive = inactive at the maximum tested concentration (40 µM), read-out: IC50 (µM) rHsAChE): 35.5 µM; IC50 ([1]; Table S4, DOS-A (IC50 values; qAC50), read-out: rHsAChE qAC50): 35.5 µM; rHsAChE Data Mode ([1]; dose response curve classification, Table S4, DOS-A): decreasing; SI (Hs/Sm) [2]: 2.35; inhibition at 20 µM [3]: 61.8%"
CC(=O)[C@@]12OC(C)(c3ccccc3)O[C@@H]1C[C@H]1[C@@H]3CCC4=CC(=O)CC[C@]4(C)[C@H]3CC[C@@]12C (some centres unmarked) [BRD-A41774846-001-01-4],,inactive,decreasing (weakly active),86.37,86.06,86.68,,"IC50 [2, 4]: > 38 µM"
O=C(Cc1cccc(OC(F)(F)F)c1)Nc1ccc(CCCCc2nnc(NC(=O)Cc3ccccn3)s2)nn1 [BRD-K58070273-001-03-3],,inactive,decreasing (weakly active),71.54,74.28,68.80,,"IC50 [2, 4]: > 38 µM"
C[C@H](NC(=O)C[C@H]1C[C@H]2c3cc(NC(=O)Nc4ccc(C(F)(F)F)cc4)ccc3O[C@H]2[C@H](CO)O1)c1ccccc1 [BRD-K17686770-001-01-8],decreasing (weakly active),,,68.45,70.27,66.63,inactive,
COC(=O)C1=C(C)NC(C)=C(C(=O)OC/C=C/c2ccccc2)C1c1cccc([N+](=O)[O-])c1 (centres unmarked) [BRD-A68083442-001-01-6],,inactive,inactive,87.10,86.49,87.72,,
CC1CCCCOC(CN(C)C(=O)Nc2cccc3ccccc23)C(C)CN(C(C)CO)C(=O)c2cc(N(C)C)ccc2O1 (centres unmarked) [BRD-K85440939-001-01-5],decreasing,,,,,,,"IC50 (µM) rHsAChE ([1]; Table 2, DOS-A library, Inactive = inactive at the maximum tested concentration (40 µM)): Inactive *; inhibition at 20 µM [3]: 63.9%"
COc1ccc(C#Cc2ccc3c(c2)O[C@@H](CN(C)S(=O)(=O)c2ccccc2F)[C@@H](C)CN([C@H](C)CO)S3(=O)=O)cc1 [BRD-K67027685-001-01-8],inactive,,,71.37,69.23,73.51,inactive,
CC(C)n1cnc2c(NCCc3ccc(O)cc3)nc(-c3csc4ccccc34)nc21 [BRD-K36739687-001-03-0],,inactive,inactive,68.06,70.28,65.85,,
CCCCCCCCCCCC([NH2+][O-])c1cc(C)ccc1O (centres unmarked) [BRD-A37752546-001-01-9],,decreasing,inactive,84.23,82.45,86.01,,"IC50 [1, 5]: 7.8 µM"
C[C@]12CC[C@@H]3c4ccc(O)cc4C[C@@H](CCCCCCCCC[S+]([O-])CCCC(F)(F)C(F)(F)F)[C@H]3[C@@H]1CC[C@@H]2O (some centres unmarked) [BRD-A85667082-001-13-5],,inactive,inactive,86.15,85.50,86.80,,
Clc1ccc(C(Cn2ccnc2)OCc2ccc(Sc3ccccc3)cc2)c(Cl)c1 (centres unmarked) [BRD-A33697453-008-02-4],,inactive,inactive,70.27,64.14,76.40,,
"CN(C)C(=O)Oc1cccc([N+](C)(C)C)c1 [Neostigmine bromide, reference compound]",,decreasing,decreasing,,,,,inhibition at 20 µM [3]: 88.1%
N#C[C@H]1[C@H](c2ccc(C#CC3CC3)cc2)[C@H](CO)N1C(=O)Cc1ccccn1 [BRD-K00124439-001-01-2],decreasing (weakly active),,,63.26,63.67,62.84,inactive,
CC(C)C#Cc1ccc([C@@H]2[C@@H](CO)N3C(=O)CN(S(=O)(=O)c4ccccc4)C[C@@H]23)cc1 [BRD-K69261014-001-01-3],inactive,,,63.59,66.79,60.39,increasing (weakly active),
CCCCC(=O)O[C@H]1CC[C@H]2[C@@H]3CCc4cc(O)ccc4[C@H]3CC[C@]12C [BRD-K66766661-001-19-2],,decreasing,inactive,77.12,78.67,75.58,,"IC50 [1, 5]: 29.4 µM"
SR-33805 [reference compound],,,decreasing,74.26,73.90,74.62,,"IC50 (µM) rHsAChE [1]: Inactive; inhibition of rHsAChE, result in words [1]: no inhibition detected; also recorded: no activity detected; IC50 ([2]; read-out: IC50 (µM) rSmTAChE): 6.82 µM; HTS/rSmTAChE Inhibition (Ave, %) ([3]; 5 µM): 74.26%"
O=C(C[C@H]1C[C@H]2c3cc(NC(=O)Nc4ccc(C(F)(F)F)cc4)ccc3O[C@H]2[C@H](CO)O1)NC1CCCCC1 [BRD-K50094564-001-01-3],decreasing (weakly active),,,69.15,68.27,70.03,inactive,
O=C(O)CCc1cc(C(=O)c2ccc(OC3CCCC3)cc2O)ccc1OCc1ccc2c(=O)[nH]oc2c1 [BRD-K84925803-001-01-9],,inactive,decreasing (weakly active),87.31,83.68,90.95,,"IC50 [2, 4]: > 38 µM"
COc1cccc(C#Cc2ccc([C@H]3[C@@H](C#N)N(C(=O)c4ccccn4)[C@@H]3CO)cc2)c1 [BRD-K61082257-001-01-7],decreasing (weakly active),,,66.17,65.93,66.40,inactive,
COC(=O)C1=C(C)NC(C)=C(C(=O)OC(C)(C)CN(C)CCC(c2ccccc2)c2ccccc2)C1c1cccc([N+](=O)[O-])c1 (centres unmarked) [BRD-A18992208-003-02-7],,inactive,inactive,78.14,77.49,78.79,,
COc1ccc(C#Cc2ccc3c(c2)O[C@H](CN(C)S(=O)(=O)c2ccccc2F)[C@@H](C)CN([C@H](C)CO)S3(=O)=O)cc1 [BRD-K53241408-001-01-7],inactive,,,74.07,75.51,72.63,inactive,
C[C@]12CC[C@@H]3c4ccc(O)cc4CC[C@H]3[C@@H]1CCC2=O [BRD-K81839095-001-25-1],,inactive,inactive,94.45,91.12,97.78,,
COCCOc1ccc2c(c1)ncn2-c1ccc2cccc(N3CCC(N)CC3)c2n1 [BRD-K43621685-001-03-3],,decreasing,decreasing (weakly active),79.32,80.31,78.32,,"IC50 [1, 5]: 20.7 µM; IC50 [2, 4]: > 38 µM"

# — PMC12154458, “High-Throughput Screens of Repurposing Hub and DOS Chemical Libraries Reveal Compounds with Novel and Potent Inhibitory Activity Against the Essential Non-Neuronal Acetylcholinesterase of Schistosoma mansoni (SmTAChE)” (International Journal of Molecular Sciences, 2025)
